Results as given in the CheMixHub ionic liquid set.
Values joined by “and” are separate entries in the source; they are usually repeats but may differ in a detail not shown here. Equal values may be shown once.

Assay: xn = mol fraction of the nth substance listed

CC1COC(=O)O1 (configuration not stated) + CC[n+]1ccn(C)c1.O=S(=O)([N-]S(=O)(=O)C(F)(F)F)C(F)(F)F
101.3 kPa, x2 = 0
Settings	viscosity [mPa·s]
303.15 K	2.246
318.15 K	1.73
338.15 K	1.294

CCC[N+]1(C)CCCC1.O=S(=O)([N-]S(=O)(=O)C(F)(F)F)C(F)(F)F + CC[n+]1ccn(C)c1.O=S(=O)([N-]S(=O)(=O)C(F)(F)F)C(F)(F)F
101 kPa
Settings	electrical conductivity, 293.15 K [S/m]	electrical conductivity, 333.15 K [S/m]	electrical conductivity, 353.15 K [S/m]	viscosity, 293.15 K [mPa·s]	viscosity, 333.15 K [mPa·s]	viscosity, 353.15 K [mPa·s]
x2 = 0	–	1.18	1.76	–	18.8	11.6
x2 = 0.5	0.528	–	–	53.4	–	–

CC1COC(=O)O1 (configuration not stated) + CC[n+]1ccn(C)c1.O=S(=O)([O-])C(F)(F)F
101 kPa, x2 = 0
Settings	viscosity [mPa·s]
293.15 K	2.94
343.15 K	1.251

[Br][Al]([Br])[Br] + CC[n+]1ccn(C)c1.[Br-]
Settings	electrical conductivity [S/m]
298.15 K, 101.3 kPa, x1 = 0.35	0.625

NC(CO)CO + CC[n+]1ccn(C)c1.[Cl-]
101 kPa, x2 = 0.667
Settings	viscosity [mPa·s]
298.15 K	297
303.15 K	214
313.15 K	115.9
323.15 K	64.5
333.15 K	41.4

CC1COC(=O)O1 (configuration not stated) + CC[n+]1ccn(C)c1C.O=S(=O)([N-]S(=O)(=O)C(F)(F)F)C(F)(F)F
101.3 kPa, x2 = 0
Settings	viscosity [mPa·s]
308.15 K	2.049
348.15 K	1.14

CCCC[n+]1ccn(C)c1.F[B-](F)(F)F + CN1CCCC1=O
viscosity, 101 kPa
Settings	298.15 K	303.15 K	308.15 K	313.15 K	323.15 K
x1 = 0.0115	2.02 mPa·s	1.88 mPa·s	1.52 mPa·s	1.44 mPa·s	–
x2 = 0	101 mPa·s	81 mPa·s and 84.2 mPa·s	61.5 mPa·s	51.5 mPa·s	35.5 mPa·s
x2 = 0.043	86 mPa·s	73.7 mPa·s	58.1 mPa·s	–	–
x2 = 0.0879	76.3 mPa·s	63.5 mPa·s	51.2 mPa·s	43.1 mPa·s	–
x2 = 0.0999	–	63.2 mPa·s	–	–	–
x2 = 0.2001	–	47.1 mPa·s	–	–	–
x2 = 0.2126	56.9 mPa·s	46.1 mPa·s	36.1 mPa·s	32.5 mPa·s	–
x2 = 0.3028	–	34.7 mPa·s	–	–	–
x2 = 0.388	35.2 mPa·s	25.2 mPa·s	16.5 mPa·s	14.6 mPa·s	–
x2 = 0.4	–	24.58 mPa·s	–	–	–
x2 = 0.5343	21.7 mPa·s	14.8 mPa·s	9.2 mPa·s	6.53 mPa·s	–
x2 = 0.6577	13.1 mPa·s	9.5 mPa·s	6.81 mPa·s	5.38 mPa·s	–
x2 = 0.7001	–	–	–	–	4.6 mPa·s
x2 = 0.7221	9.1 mPa·s	7.8 mPa·s	5.61 mPa·s	5.01 mPa·s	–
x2 = 0.7612	7.67 mPa·s	6.86 mPa·s	6.01 mPa·s	5.33 mPa·s	–
x2 = 0.8524	4.94 mPa·s	4.45 mPa·s	3.99 mPa·s	3.58 mPa·s	–
x2 = 0.9005	3.6 mPa·s	3.27 mPa·s	2.95 mPa·s	2.69 mPa·s	–
x2 = 0.9321	2.96 mPa·s	2.88 mPa·s	2.81 mPa·s	2.09 mPa·s	–
x2 = 0.9743	2.3 mPa·s	2.11 mPa·s	1.93 mPa·s	1.79 mPa·s	–

CCCCCCCCn1cc[n+](C)c1.O=S(=O)([N-]S(=O)(=O)C(F)(F)F)C(F)(F)F + CN(C)C=O
viscosity [mPa·s], 101 kPa
Settings	293.15 K	303.15 K	313.15 K	323.15 K	333.15 K	343.15 K	353.15 K	363.15 K
x1 = 0.001926	0.959	0.858	0.771	0.702	0.641	0.59	0.543	0.502
x1 = 0.003917	0.982	0.876	0.787	0.715	0.653	0.598	0.552	0.51
x1 = 0.007695	1.019	0.907	0.818	0.738	0.672	0.617	0.568	0.524
x1 = 0.01197	1.059	0.942	0.85	0.762	0.694	0.635	0.584	0.539
x1 = 0.01518	1.096	0.971	0.877	0.784	0.713	0.653	0.598	0.552
x1 = 0.0193	1.136	1.006	0.909	0.81	0.734	0.669	0.614	0.579

CCCC[n+]1ccn(C)c1.F[B-](F)(F)F + CN(C)C=O
Settings	viscosity [mPa·s]
293.15 K, 101 kPa, x1 = 0.08	3.1
298.15 K, 101 kPa, x1 = 0.74	42.5
298.15 K, 101 kPa, x1 = 0.83	62.4
298.15 K, 101 kPa, x1 = 0.94	88
298.15 K, 101.33 kPa, x2 = 0.1024	78
303.15 K, 100 kPa, x1 = 0.1008	1.497
303.15 K, 101 kPa, x1 = 0.94	74
308.15 K, 101 kPa, x1 = 0.43	5.71
313.15 K, 100 kPa, x1 = 0.8015	25.47
313.15 K, 100 kPa, x1 = 1	53.84
313.15 K, 101 kPa, x1 = 0.16	2.45
313.15 K, 101 kPa, x1 = 0.74	18.5
318.15 K, 101 kPa, x1 = 0.08	1.42
318.15 K, 101 kPa, x1 = 0.55	1.67
318.15 K, 101 kPa, x1 = 0.74	12
323.15 K, 100 kPa, x1 = 0.3022	2.993
323.15 K, 100 kPa, x1 = 0.7019	14.07
323.15 K, 101 kPa, x1 = 0.08	1.19
323.15 K, 101 kPa, x1 = 0.74	6.8
323.15 K, 101 kPa, x1 = 0.94	26.6
333.15 K, 100 kPa, x1 = 0.7019	10.75

NC(N)=[NH2+].O=S(=O)([O-])C(F)(F)F + CN(CCO)CCO + O
Settings	viscosity [mPa·s]
323.2 K, 101 kPa, x2 = 0.1179, x3 = 0.8792	3.5

CCCC[n+]1ccn(C)c1.F[B-](F)(F)F + CNC(C)=O
Settings	viscosity [mPa·s]
293.15 K, 101 kPa, x1 = 1	127.6

CCCC[n+]1ccn(C)c1.F[B-](F)(F)F + CO
101 kPa
Settings	electrical conductivity [S/m]	viscosity [mPa·s]
298.1 K, x1 = 0.007405	0.598	–
298.1 K, x1 = 0.03422	1.35	–
303.15 K, x2 = 0.6004	–	5.98
313.15 K, x2 = 0	–	53
313.15 K, x2 = 0.1003	–	36.1
313.15 K, x2 = 0.2047	–	24.26
313.15 K, x2 = 0.7997	–	1.778
313.15 K, x2 = 0.9001	–	0.993
323.15 K, x2 = 0.1003	–	25.42
323.15 K, x2 = 0.6004	–	4.07
333.15 K, x2 = 0.3996	–	7.23
